Data as given in EP2605769B1, “BENZOQUINONE DERIVATIVES FOR THE TREATMENT OF MITCHONDRIAL EYE DISEASES” (Santhera Pharmaceuticals (Schweiz) AG, priority 2010, dated 2012).

How the values were obtained:
[1] = test system: Primary human fibroblasts C4 (GM04545, Coriell); assay: Lipid peroxidation assay (BODIPY 581/591-C11); assay type: cell-based; conditions: 10 µM test compound, 72 hours
Description: Lipid peroxidation is a well defined mechanism of cellular damage in both animals and plants that occurs during aging and in some disease states. This process proceeds by a free radical chain reaction mechanism. […] If not terminated fast enough, lipid peroxidation damages cellular membranes, affect membrane fluidity and also mitochondrial function. In addition, end products of lipid peroxidation may be mutagenic and carcinogenic. For instance, the reactive end product of lipid peroxidation, malondialdehyde, directly causes DNA damage. Experimental Procedure: […] BODIPY 581/591-C11 can be used to measure antioxidant activity in lipid environments by exploiting its loss of fluorescence upon interaction with peroxyl radicals. […] After that, 0.1 ml freshly prepared dye solution (HBSS, containing BODIPY dye 1:1000 from stock solution) was added and cells were returned to the incubator for 30 min. After 2 brief washes with 0.1 ml warmed PBS fluorescence was measured in 50 µl PBS. Fluorescence for 4 individual areas per well were individually quantified at two wavelengths (Ex1: 490, Em1: 600; Ex2: 490, Em2: 530, bandwith 10nm, 50 flashes, 400Hz frequency, 20 µs integration time).

Complex II-III = assay: Measurement of mitochondrial complex II activity (SURFE2R CII-CIII assay); assay type: biochemical; conditions: test compound ~4 µM, peak current normalized
Description: Complex II (CII) is an enzyme complex bound to the matrix face of the inner mitochondrial membranes. It consists of four subunits with several different enzymatic activities. One of these is the citric acid-cycle enzyme succinate dehydrogenase, which catalyzes the conversion from succinate to fumarate. In this reaction electrons are transferred from succinate to the prosthetic group FAD thus generating FADH2 ([…] 2000). These electrons are then transferred from the reduced FADH2 to ubiquinone, from ubiquinone to the reaction centers of complex III (CIII), and finally to the cytochrome c. During this electron translocation process, complex III pumps four protons from matrix to the intermembrane space. These proton fluxes can be detected as electrical currents on SSM-based SURFE2R sensors (http://www.sd-heidelberg.de/index.html). In the SURFE2R CII-CIII assay, both, CII and CIII are activated simultaneously by first equilibrating the sensors with succinate and then activating the CII-CIII reaction by oxidized cytochrome c. The resulting efflux of protons out from the membrane compartment induces negative currents, which are sensitive to the CII and CIII inhibitors malonate and antimycin A, respectively. Experimental Procedure: SURFE2R SSM sensors were coated with inner mitochondrial membranes according to the standard protocols. Briefly, sensors were filled with 50 μL of SensorPrep A solution and incubated for 10-15 min. […] The biosensors were thawed immediately before the experiment and measured with the SURFE2R Workstation 50 or 500 devices. […] For the activity of CII-III, the peak current (current amplitude) was evaluated. […] Afterwards, a test compound (~4 μM) was supplied to the non-activating and the activating solutions and the CII-III activity was recorded for further ~50 min (110 min in total). […] For those test compounds, which activated CII-III by more than 30% at time 80 to 110 min, the CII-CIII activity was recorded for additional ~50 min (up to 160 min in total).

| Structure (SMILES) | Lipid peroxidation [1] [%] | Complex II-III activity (Complex II-III) [%] |
| --- | --- | --- |
| COC1=C(OC)C(=O)C(CCCCCCCCCCO)=C(C)C1=O [Compound IA, Idebenone] | 98 | 102 |
| COC1=C(OC)C(=O)C(CCCCCCCCCC(C)(C)O)=C(C)C1=O [Compound IC] | 92 | 97 |
| CCCCCCCCCCCC1=C(O)C(=O)C=C(O)C1=O [Compound IE, Embelin] | 110 | 110 |
